# Test system: p-IKKa levels in L363 (NIK translocated multiple myeloma) cells
# Assay: Assay 2: Effect of compounds on p-IKKa levels in L363 (NIK translocated multiple myeloma) cells
# Assay type: cell-based
# Conditions: Homo sapiens, L-363, 6 h, read-out: Assay 2 IC50 (nM), p-IKKa (Ser 176/180) in BAFF stimulated L363 cells with MG132, 6 h; average if tested more than once
# In short: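 Read-out is p-IKKa Ser176/180 by AlphaLISA SureFire in lysates. Cells were BAFF-primed (250 ng/ml) overnight or left unstimulated, then exposed 6 h at 37 °C to compound with MG132 (10 μM), 0.3% DMSO. IC50 from sigmoidal curve fit, normalized between stimulated and unstimulated controls.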
row,Compound,IC50 [nM]
1,"CC(Nc1nccc(-c2cccc(-c3cc([C@]4(O)CCN(C)C4=O)on3)n2)n1)c1cn(C)cn1 (stereo partly drawn) [Example 378, (3R)-3-Hydroxy-1-methyl-3-(3-(6-(2-((1-(1-methyl-1H-imidazol-4-yl)ethyl)amino)pyrimidin-4-yl)pyridin-2-yl)isoxazol-5-yl)pyrrolidin-2-one]",50 to 500
2,"CN1CC[C@@](O)(c2cc(-c3cccc(-c4ccnc(Nc5ccnc(C(F)F)c5)n4)n3)no2)C1=O [Example 294, (R)-3-(3-(6-(2-((2-(Difluoromethyl)pyridin-4-yl)amino)pyrimidin-4-yl)pyridin-2-yl)isoxazol-5-yl)-3-hydroxy-1-methylpyrrolidin-2-one]",< 50
3,"CN1CC[C@](O)(c2cn(-c3cccc(-c4ccnc(Nc5ccn(C)n5)n4)n3)cn2)C1=O (single isomer, unassigned) [Example 87]",> 500
4,"C[C@@H](Nc1nccc(-c2cccc(-c3cc([C@]4(O)CCN(C)C4=O)on3)n2)n1)C(=O)N1CCC(F)(F)C1 [Example 173, (R)-3-(3-(6-(2-(((R)-1-(3,3-Difluoropyrrolidin-1-yl)-1-oxopropan-2-yl)amino)pyrimidin-4-yl)pyridin-2-yl)isoxazol-5-yl)-3-hydroxy-1-methylpyrrolidin-2-one]",> 500
5,"C[C@@H](Nc1nccc(-c2cccc(-c3cc([C@]4(O)CCN(C)C4=O)on3)n2)n1)c1ccnn1C (single isomer, unassigned) [Example 67]",50 to 500
6,"CN1CC[C@@](O)(c2cc(-c3cccc(-c4ccnc(Nc5cncc(C#N)c5)n4)n3)no2)C1=O [Example 292, (R)-5-((4-(6-(5-(3-Hydroxy-1-methyl-2-oxopyrrolidin-3-yl)isoxazol-3-yl)pyridin-2-yl)pyrimidin-2-yl)amino)nicotinonitrile]",< 50
7,"COc1ncc(Nc2nccc(-c3cccc(-c4cc([C@]5(O)CCN(C)C5=O)on4)n3)n2)cn1 [Example 112, (R)-3-Hydroxy-3-(3-(6-(2-((2-methoxypyrimidin-5-yl)amino)pyrimidin-4-yl)pyridin-2-yl)isoxazol-5-yl)-1-methylpyrrolidin-2-one]",50 to 500
8,"CN1CC[C@@](O)(c2cc(-c3cccc(-c4ccnc(N[C@@H]5CC6CCC5O6)n4)n3)no2)C1=O (stereo partly drawn) [Example 361, (3R)-3-(3-(6-(2-(((cis)-7-Oxabicyclo[2.2.1]heptan-2-yl)amino)pyrimidin-4-yl)pyridin-2-yl)isoxazol-5-yl)-3-hydroxy-1-methylpyrrolidin-2-one]",50 to 500
9,"C[C@H](Nc1nccc(-c2cccc(-c3cc([C@]4(O)CCN(C)C4=O)on3)n2)n1)c1ccnn1C (single isomer, unassigned) [Example 68]",50 to 500
10,"CN1CC[C@@](O)(c2cc(-c3cccc(-c4ccnc(Nc5ccn(C6COC6)n5)n4)n3)no2)C1=O [Example 312, (R)-3-Hydroxy-1-methyl-3-(3-(6-(2-((1-(oxetan-3-yl)-1H-pyrazol-3-yl)amino)pyrimidin-4-yl)pyridin-2-yl)isoxazol-5-yl)pyrrolidin-2-one]",< 50
11,"CN1CC[C@@](O)(c2cc(-c3cccc(-c4ccnc(NCCn5ccc(N)n5)n4)n3)no2)C1=O [Example 123, (R)-3-(3-(6-(2-((2-(3-Amino-1H-pyrazol-1-yl)ethyl)amino)pyrimidin-4-yl)pyridin-2-yl)isoxazol-5-yl)-3-hydroxy-1-methylpyrrolidin-2-one]",> 500
12,"CCn1cc(Nc2nccc(-c3cccc(-c4cc([C@]5(O)CCN(C)C5=O)on4)n3)n2)cn1 [Example 46, (R)-3-(3-(6-(2-((1-Ethyl-1H-pyrazol-4-yl)amino)pyrimidin-4-yl)pyridin-2-yl)isoxazol-5-yl)-3-hydroxy-1-methylpyrrolidin-2-one]",< 50
13,"CN1CC[C@@](O)(c2cc(-c3cccc(-c4ccnc(Nc5cnn6c5OCC(C)(C)C6)n4)n3)no2)C1=O [Example 444, (R)-3-(3-(6-(2-((6,6-Dimethyl-6,7-dihydro-5H-pyrazolo[5,1-b][1,3]oxazin-3-yl)amino)pyrimidin-4-yl)pyridin-2-yl)isoxazol-5-yl)-3-hydroxy-1-methylpyrrolidin-2-one]",< 50
14,"CN1CC[C@@](O)(c2cc(-c3cccc(-c4ccnc(Nc5cn(C)nc5Cl)n4)n3)no2)C1=O [Example 296, (R)-3-(3-(6-(2-((3-Chloro-1-methyl-1H-pyrazol-4-yl)amino)pyrimidin-4-yl)pyridin-2-yl)isoxazol-5-yl)-3-hydroxy-1-methylpyrrolidin-2-one]",< 50
15,"CN1CC[C@@](O)(c2cc(-c3cccc(-c4ccnc(Nc5nn(C)c6nccnc56)n4)c3)no2)C1=O [Example 422, (R)-3-Hydroxy-1-methyl-3-(3-(3-(2-((1-methyl-1H-pyrazolo[3,4-b]pyrazin-3-yl)amino)pyrimidin-4-yl)phenyl)isoxazol-5-yl)pyrrolidin-2-one]",> 500
16,"CN1CC[C@@](O)(c2cc(-c3cccc(-c4ccnc(Nc5cnn(C6COC6)c5)n4)n3)no2)C1=O [Example 264, (R)-3-Hydroxy-1-methyl-3-(3-(6-(2-((1-(oxetan-3-yl)-1H-pyrazol-4-yl)amino)pyrimidin-4-yl)pyridin-2-yl)isoxazol-5-yl)pyrrolidin-2-one]",< 50
17,"CN1CC[C@@](O)(c2cc(-c3cccc(-c4ccnc(N[C@H](CO)c5ccccc5)n4)n3)no2)C1=O [Example 386, (R)-3-Hydroxy-3-(3-(6-(2-(((S)-2-hydroxy-1-phenylethyl)amino)pyrimidin-4-yl)pyridin-2-yl)isoxazol-5-yl)-1-methylpyrrolidin-2-one]",50 to 500
18,"C[C@@H](Nc1nccc(-c2cccc(-c3cc([C@]4(O)CCN(C)C4=O)on3)n2)n1)c1ccn2ccnc2c1 (single isomer, unassigned) [Example 164]",> 500
19,"CN(C)CCn1ccc(Nc2nccc(-c3cccc(-c4cc([C@]5(O)CCN(C)C5=O)on4)n3)n2)n1 [Example 126, (R)-3-(3-(6-(2-((1-(2-(Dimethylamino)ethyl)-1H-pyrazol-3-yl)amino)pyrimidin-4-yl)pyridin-2-yl)isoxazol-5-yl)-3-hydroxy-1-methylpyrrolidin-2-one]",< 50
20,"CC1OCCn2ncc(Nc3nccc(-c4cccc(-c5cc([C@@]6(O)C(=O)N(C)CC6(F)F)on5)n4)n3)c21 (single isomer, unassigned) [Example 116, (R)-4,4-Difluoro-3-hydroxy-1-methyl-3-(3-(6-(2-(((*R)-4-methyl-6,7-dihydro-4H-pyrazolo[5,1-c][1,4]oxazin-3-yl)amino)pyrimidin-4-yl)pyridin-2-yl)isoxazol-5-yl)pyrrolidin-2-one]",50 to 500
21,"Cc1cc(C(C)Nc2nccc(-c3cccc(-c4cc([C@]5(O)CCN(C)C5=O)on4)n3)n2)n[nH]1 (stereo partly drawn) [Example 379, (3R)-3-Hydroxy-1-methyl-3-(3-(6-(2-((1-(5-methyl-1H-pyrazol-3-yl)ethyl)amino)pyrimidin-4-yl)pyridin-2-yl)isoxazol-5-yl)pyrrolidin-2-one]",50 to 500
22,"CN1CC[C@@](O)(c2cc(-c3cccc(-c4ccnc(Nc5cc6n(n5)CCOC6)n4)c3)no2)C1=O [Example 22, (R)-3-(3-(3-(2-((6,7-Dihydro-4H-pyrazolo[5,1-c][1,4]oxazin-2-yl)amino)pyrimidin-4-yl)phenyl)isoxazol-5-yl)-3-hydroxy-1-methylpyrrolidin-2-one]",> 500
23,"CN1CC[C@@](O)(c2cc(-c3cccc(-c4ccnc(Nc5nc(C6CCOCC6)nn5C)n4)n3)no2)C1=O [Example 266, (R)-3-Hydroxy-1-methyl-3-(3-(6-(2-((1-methyl-3-(tetrahydro-2H-pyran-4-yl)-1H-1,2,4-triazol-5-yl)amino)pyrimidin-4-yl)pyridin-2-yl)isoxazol-5-yl)pyrrolidin-2-one]",> 500
24,"CN1CC[C@@](O)(c2cc(-c3cccc(-c4nc(Nc5nn(C)cc5C#N)ncc4F)c3)no2)C1=O [Example 424, (R)-3-((5-Fluoro-4-(3-(5-(3-hydroxy-1-methyl-2-oxopyrrolidin-3-yl)isoxazol-3-yl)phenyl)pyrimidin-2-yl)amino)-1-methyl-1H-pyrazole-4-carbonitrile]",> 500
25,"COCn1ncc(Nc2nccc(-c3cccc(-c4cc([C@]5(O)CCN(C)C5=O)on4)n3)n2)n1 [Example 311, (R)-3-Hydroxy-3-(3-(6-(2-((2-(methoxymethyl)-2H-1,2,3-triazol-4-yl)amino)pyrimidin-4-yl)pyridin-2-yl)isoxazol-5-yl)-1-methylpyrrolidin-2-one]",< 50
26,"CN1CC[C@@](O)(c2cc(-c3cccc(-c4ccnc(Nc5ccnnc5)n4)n3)no2)C1=O [Example 281, (R)-3-Hydroxy-1-methyl-3-(3-(6-(2-(pyridazin-4-ylamino)pyrimidin-4-yl)pyridin-2-yl)isoxazol-5-yl)pyrrolidin-2-one]",> 500
27,"C[C@H](Nc1nccc(-c2cccc(-c3cc([C@]4(O)CCN(C)C4=O)on3)n2)n1)c1cnnn1C [Example 384, (R)-3-Hydroxy-1-methyl-3-(3-(6-(2-(((S)-1-(1-methyl-1H-1,2,3-triazol-5-yl)ethyl)amino)pyrimidin-4-yl)pyridin-2-yl)isoxazol-5-yl)pyrrolidin-2-one]",50 to 500
28,"CC1CCCCC1Nc1nccc(-c2cccc(-c3cc([C@]4(O)CCN(C)C4=O)on3)n2)n1 (mixture of isomers) [Example 341, (3R)-3-Hydroxy-1-methyl-3-(3-(6-(2-(((rac)-2-methylcyclohexyl)amino)pyrimidin-4-yl)pyridin-2-yl)isoxazol-5-yl)pyrrolidin-2-one]",50 to 500
29,"CC1CC(Nc2nccc(-c3cccc(-c4cc([C@]5(O)CCN(C)C5=O)on4)n3)n2)CO1 (mixture of isomers) [Example 343, (R)-3-Hydroxy-1-methyl-3-(3-(6-(2-(((rac)-5-methyltetrahydrofuran-3-yl)amino)pyrimidin-4-yl)pyridin-2-yl)isoxazol-5-yl)pyrrolidin-2-one]",50 to 500
30,"C[C@@H](Nc1nccc(-c2cccc(-c3cc([C@]4(O)CCN(C)C4=O)no3)n2)n1)c1cnn(C)c1 (single isomer, unassigned) [Example 401]",< 50

# — patent US20250282768A1 (Janssen Pharmaceutica NV, priority 2022, published 2025)
